The source of these data is patent US8598084B2, “Synergistic herbicide/insecticide composition containing certain pyridine carboxylic acids and certain insecticides” (priority 2010, dated 2013).

Holding throughout (format): in vivo
Experiment [1] relates to Russian thistle (Salsola iberica L; SASKR). In words: Postemergence herbicidal activity of mixtures, greenhouse, visual injury vs control. To be noted: for pest or weed control at 1.25 g/ha: 1.25 g/ha alone. The method, then:
(§1) Evaluation of Postemergence Herbicidal Activity of Mixtures in Cereal Crops
(§2) Seeds of the desired test plant species were planted in Sun Gro MetroMix® 306 planting mixture, which typically has a pH of 6.0 to 6.8 and an organic matter content of about 30 percent, in plastic pots with a surface area of 103.2 square centimeters (cm^2). When required to ensure good germination and healthy plants, a fungicide treatment and/or other chemical or physical treatment was applied. The plants were grown for 7-36 days (d) in a greenhouse with an approximate 14 hour (h) photoperiod which was maintained at about 18° C. during the day and 17° C. during the night. Nutrients and water were added on a regular basis and supplemental lighting was provided with overhead metal halide 1000-Watt lamps as necessary. The plants were employed for testing when they reached the second or third true leaf stage.
(§3) Treatments consisted of an insecticidal compound (as listed in Tables 1 through 18) and the cereal herbicide, 4-amino-3-chloro-6-(4-chloro-2-fluoro-3-methoxyphenyl)pyridine-2-carboxylic acid, alone and in combination. Weighed amounts of esters (methyl) or salts (triethylammonium, TEA) of 4-amino-3-chloro-6-(4-chloro-2-fluoro-3-methoxyphenyl)pyridine-2-carboxylic acid (Compound I) were placed in 25 milliliter (mL) glass vials and dissolved in a volume of 97:3 volume per volume (v/v) acetone/dimethyl sulfoxide (DMSO) to obtain 4.5 milligrams active ingredient per mL (mg ai/mL) concentrated solutions. […] The concentrated solutions of Compound I were diluted to 1.5 mg ai/mL with the addition of 2 volumes of an aqueous mixture containing acetone, water, isopropyl alcohol, DMSO, Agri-dex crop oil concentrate, and Triton® X-77 surfactant in a 64.7:26.0:6.7:2.0:0.7:0.01 v/v ratio. A dilution solution was prepared by mixing 1 volume of 97:3 v/v acetone/DMSO and 2 volumes of an aqueous mixture containing acetone, water, isopropyl alcohol, DMSO, Agri-dex crop oil concentrate, and Triton® X-77 surfactant in a 64.7:26.0:6.7:2.0:0.7:0.01 v/v ratio. Compound requirements are based upon a 12 mL application volume at a rate of 187 liters per hectare (L/ha). The concentrated solutions of the cereal insecticides were prepared following the same procedure. Weighed amounts of insecticide were placed in 25 milliliter (mL) glass vials and dissolved in a volume of 97:3 v/v acetone/DMSO to obtain concentrated insecticide solutions. The concentrated solutions of the safener were prepared following the same procedure. Weighed amounts of safener were placed in 25 mL glass vials and dissolved in a volume of 97:3 v/v acetone/DMSO to obtain concentrated safener solutions. The concentrated solutions were diluted to 0.75 mg/mL with an aqueous mixture of 1.5% v/v of Agri-dex crop oil concentrate.
(§4) Spray solutions of the cereal herbicide and the insecticidal compound mixtures were prepared by adding the concentrated solutions to the appropriate amount of dilution solution to form 12 mL spray solution with active ingredients in combinations. Spray solutions of the cereal herbicide, herbicide safener and the insecticidal compound mixtures were prepared by adding the concentrated solutions to the appropriate amount of dilution solution to form 12 mL spray solution with active ingredients in combinations. Formulated compounds were applied to the plant material with an overhead Mandel track sprayer equipped with 8002E nozzles calibrated to deliver 187 L/ha over an application area of 0.503 square meters (m^2) at a spray height of 18 inches […] above average plant canopy. Control plants were sprayed in the same manner with the solvent blank.
(§5) The treated plants and control plants were placed in a greenhouse as described above and watered by sub-irrigation to prevent wash-off of the test compounds. […]

The test system of experiment [2] is bird's-eye speedwell (Veronica persica L; VERPE). The experiment is described as above. To be noted: for pest or weed control at 1.25 g/ha: 1.25 g/ha alone. How it is done:
as §1, §2, §3, §4, §5

The test system of experiment [3] is kochia (Kochia scoparia L; KCHSC). Described as above. The method, then: as §1, §2, §3, §4, §5
Experiment [4] has as its system wild pansy (Viola tricolor L; VIOTR). The description is as above. The note with it: for pest or weed control at 1.25 g/ha: 1.25 g/ha alone. The method, then:
as §1, §2, §3, §4, §5

The test system of experiment [5] is scented mayweed (Matricaria chamomila L; MATCH). Described as above. The method, then:
as §1, §2, §3, §4, §5

Experiment [6] relates to barley (Hordeum vulgare L; HORVS). In words: Postemergence crop injury and safening, greenhouse, visual injury vs control. The note with it: crop injury. The method, then:
as §1, §2, §3, §4, §5

The subject of experiment [7] is wheat (Triticum aestivum L; TRZAS). The description is as above. The note with it: crop injury. How it is done: as §1, §2, §3, §4, §5
The mark [8] stands for this setting: Salsola tragus, post-emergence, read-out: Ob (observed injury).
[9] abbreviates: Veronica persica, post-emergence, read-out: Ob (observed injury).
The mark [10] stands for this setting: Viola tricolor, post-emergence, read-out: Ob (observed injury).

As for `CNC(=O)CSP(=S)(OC)OC` [Dimethoate, O,O-dimethyl S-[2-(methylamino)-2-oxoethyl]phosphorodithioate, reference compound], the pest or weed control at 170 g/ha was determined as 0% in experiment [1] (Salsola tragus, post-emergence, 170 g/ha alone, read-out: Ob (observed injury)); 0% in experiment [2] (Veronica persica, post-emergence, 170 g/ha alone, read-out: Ob (observed injury)); 0% in experiment [3] (Bassia scoparia, post-emergence, 170 g/ha alone, read-out: Ob (observed injury)); 0% in experiment [4] (Viola tricolor, post-emergence, 170 g/ha alone, read-out: Ob (observed injury)).

As for `CCOC(=O)CC(SP(=S)(OC)OC)C(=O)OCC` (stereo not drawn) [Malathion, diethyl[(dimethoxythiophosphinothioyl)thio]butanedioate, reference compound], the pest or weed control at 280 g/ha in experiment [1] (Salsola tragus, post-emergence, 280 g/ha alone, read-out: Ob (observed injury)) came out at 0%; in experiment [3] (Bassia scoparia, post-emergence, 280 g/ha alone, read-out: Ob (observed injury)), 0%; in experiment [5] (Matricaria, post-emergence, 280 g/ha alone, read-out: Ob (observed injury)) it was 0%; in experiment [4] (Viola tricolor, post-emergence, 280 g/ha alone, read-out: Ob (observed injury)) it was 0%. The pest or weed control at 1120 g/ha in experiment [4] (Viola tricolor, post-emergence, 1120 g/ha alone, read-out: Ob (observed injury)) worked out at 0%. Besides, the “Ob (observed injury)” value in experiment [6] (280 g/ha alone), in experiment [6] (1120 g/ha alone), in experiment [7] (280 g/ha alone) and in experiment [7] (1120 g/ha alone) was 0% each time.

Turning to `CC1(C)C(C=C(Cl)Cl)C1C(=O)OC(C#N)c1ccc(F)c(Oc2ccccc2)c1` (stereo not drawn) [Cyfluthrin, cyano(4-fluoro-3-phenoxyphenyl)methyl 3-(2,2-dichloroethenyl)-2,2-dimethylcyclopropanecarboxylate, reference compound], the pest or weed control at 3.75 g/ha in experiment [1] (Salsola tragus, post-emergence, 3.75 g/ha alone, read-out: Ob (observed injury)) turned out to be 0%; in experiment [3] (Bassia scoparia, post-emergence, 3.75 g/ha alone, read-out: Ob (observed injury)), 0%; in experiment [5] (Matricaria, post-emergence, 3.75 g/ha alone, read-out: Ob (observed injury)), 0%; in experiment [4] (Viola tricolor, post-emergence, 3.75 g/ha alone, read-out: Ob (observed injury)), 0%.

On to `CC1(C)[C@H](/C=C(\Cl)C(F)(F)F)[C@@H]1C(=O)O[C@@H](C#N)c1cccc(Oc2ccccc2)c1` (relative stereo) [λ-Cyhalothrin, (R)-cyano(3-phenoxyphenyl)methyl (1S,3S)-rel-3-[(1Z)-2-chloro-3,3,3-trifluoro-1-propenyl]-2,2-dimethylcyclopropanecarboxylate], for which the pest or weed control at 1.25 g/ha in experiment [1] (setting [8]), in experiment [2] (setting [9]) and in experiment [4] (setting [10]) was 0% in each case.

For `CCN(CC)CC.COc1c(Cl)ccc(-c2cc(N)c(Cl)c(C(=O)O)n2)c1F` [Compound I TEA salt], the “Ob (observed injury)” value in experiment [1] (8.75 g/ha alone) was 80%; in experiment [1] (17.5 g/ha alone) it was 84%; in experiment [1] (35 g/ha alone), 86%; in experiment [2] (8.75 g/ha alone), 10%; in experiment [2] (17.5 g/ha alone), 40%; in experiment [2] (35 g/ha alone), 70%. Moreover, the “Ob (observed injury)” value in experiment [3] (8.75 g/ha alone) was determined as 40%; in experiment [3] (17.5 g/ha alone) it was 55%; in experiment [3] (35 g/ha alone) it was 65%; in experiment [5] (8.75 g/ha alone), 40%; in experiment [5] (17.5 g/ha alone), 67%; in experiment [5] (35 g/ha alone), 73%. Also, the “Ob (observed injury)” value in experiment [4] (8.75 g/ha alone) stood at 23%; in experiment [4] (17.5 g/ha alone), 40%; in experiment [4] (35 g/ha alone), 47%.

Take `Cc1c(COC(=O)[C@@H]2[C@H](/C=C(\Cl)C(F)(F)F)C2(C)C)cccc1-c1ccccc1` (relative stereo) [Bifenthrin, (2-methyl[1,1′-biphenyl]-3-yl)methyl (1R,3R)-rel-3-[(1Z)-2-chloro-3,3,3-trifluoro-1-propenyl]-2,2-dimethylcyclopropanecarboxylate, reference compound]: the pest or weed control at 1.6 g/ha in experiment [1] (Salsola tragus, post-emergence, 1.6 g/ha alone, read-out: Ob (observed injury)) was 0%; in experiment [2] (Veronica persica, post-emergence, 1.6 g/ha alone, read-out: Ob (observed injury)) it was 0%; in experiment [5] (Matricaria, post-emergence, 1.6 g/ha alone, read-out: Ob (observed injury)), 0%; in experiment [4] (Viola tricolor, post-emergence, 1.6 g/ha alone, read-out: Ob (observed injury)) it was 0%.

Regarding `N#CCNC(=O)c1cnccc1C(F)(F)F` [Flonicamid, N-(cyanomethyl)-4-(trifluoromethyl)-3-pyridinecarboxamide], the pest or weed control at 17.5 g/ha in experiment [1] (Salsola tragus, post-emergence, 17.5 g/ha alone, read-out: Ob (observed injury)) is 0%; in experiment [5] (Matricaria, post-emergence, 17.5 g/ha alone, read-out: Ob (observed injury)), 0%; in experiment [4] (Viola tricolor, post-emergence, 17.5 g/ha alone, read-out: Ob (observed injury)), 0%.

Consider `CCOP(=S)(OCC)Oc1nc(Cl)c(Cl)cc1Cl` [Chlorpyrifos, O,O-diethyl O-(3,5,6-trichloro-2-pyridinyl) phosphorothioate, reference compound], for which the pest or weed control at 60 g/ha in experiment [1] (Salsola tragus, post-emergence, 60 g/ha alone, read-out: Ob (observed injury)) is 0%; in experiment [2] (Veronica persica, post-emergence, 60 g/ha alone, read-out: Ob (observed injury)) it was 0%; in experiment [3] (Bassia scoparia, post-emergence, 60 g/ha alone, read-out: Ob (observed injury)) it was 0%; in experiment [5] (Matricaria, post-emergence, 60 g/ha alone, read-out: Ob (observed injury)), 0%; in experiment [4] (Viola tricolor, post-emergence, 60 g/ha alone, read-out: Ob (observed injury)) it was 0%.

Take `Cc1nc(N(C)C)nc(OC(=O)N(C)C)c1C` [Pirimicarb, 2-(dimethylamino)-5,6-dimethyl-4-pyrimidinyl dimethylcarbamate, reference compound]: the pest or weed control at 35 g/ha was determined as 0% in experiment [1] (Salsola tragus, post-emergence, 35 g/ha alone, read-out: Ob (observed injury)); 0% in experiment [2] (Veronica persica, post-emergence, 35 g/ha alone, read-out: Ob (observed injury)); 0% in experiment [3] (Bassia scoparia, post-emergence, 35 g/ha alone, read-out: Ob (observed injury)); 0% in experiment [5] (Matricaria, post-emergence, 35 g/ha alone, read-out: Ob (observed injury)); 0% in experiment [4] (Viola tricolor, post-emergence, 35 g/ha alone, read-out: Ob (observed injury)).

Consider `CC1(C)[C@H](C(=O)O[C@H](C#N)c2cccc(Oc3ccccc3)c2)[C@@H]1C=C(Br)Br` [Deltamethrin, (S)-cyano(3-phenoxyphenyl)methyl (1R,3R)-3-(2,2-dibromoethenyl)-2,2-dimethylcyclopropanecarboxylate, reference compound], for which the pest or weed control at 1.25 g/ha in experiment [1] (setting [8]) stood at 0%; in experiment [2] (setting [9]), 0%; in experiment [3] (Bassia scoparia, post-emergence, 1.25 g/ha alone, read-out: Ob (observed injury)), 0%; in experiment [5] (Matricaria, post-emergence, 1.25 g/ha alone, read-out: Ob (observed injury)), 0%; in experiment [4] (setting [10]), 0%.
